Test results as given in ChEMBL document CHEMBL1909046, “DrugMatrix in vitro pharmacology data”.

Experiments:
[1] = DRUGMATRIX: Interleukin IL-1 radioligand binding (ligand: [125I] interleukin 1beta); type: cell membranes, Membrane; conditions: nih3t3; Not Active = under 50% inhibition at 10 µM
[2] = biological target: T1, Interstitial collagenase (Homo sapiens, UniProt P03956); experiment: biochemical; type: tissue-based, Rheumatoid synovial fibroblasts;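 also: MMP-1 enzyme inhibition assay using a peptide substrate; in other assays of this panel Not Active means under 50% inhibition at 10 µM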
T1 sequence (P03956 whole entry): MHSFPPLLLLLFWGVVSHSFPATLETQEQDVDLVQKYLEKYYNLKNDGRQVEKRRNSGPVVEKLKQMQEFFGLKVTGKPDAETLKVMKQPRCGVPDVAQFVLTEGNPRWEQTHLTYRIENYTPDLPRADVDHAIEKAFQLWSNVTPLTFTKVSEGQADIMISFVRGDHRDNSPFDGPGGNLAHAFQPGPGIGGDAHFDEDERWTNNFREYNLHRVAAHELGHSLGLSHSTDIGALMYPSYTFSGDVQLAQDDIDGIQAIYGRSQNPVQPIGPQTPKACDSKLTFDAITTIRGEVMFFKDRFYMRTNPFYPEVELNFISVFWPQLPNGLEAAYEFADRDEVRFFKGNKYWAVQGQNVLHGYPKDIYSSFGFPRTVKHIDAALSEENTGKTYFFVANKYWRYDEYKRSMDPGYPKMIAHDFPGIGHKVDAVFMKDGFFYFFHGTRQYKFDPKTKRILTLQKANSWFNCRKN

[3] = DRUGMATRIX: Glutamate, Kainate radioligand binding (ligand: [3H] Kainic acid); type: cell membranes, Rattus norvegicus, Wistar, Brain, Membrane; conditions: Not Active = under 50% inhibition at 10 µM
[4] = biological target: Cytochrome P450 2C19 (Homo sapiens, UniProt P33261); conditions: bti-tn-5b1-4; also: in other assays of this panel Not Active means under 50% inhibition at 10 µM
[5] = biological target: T2, Progesterone receptor (Bos taurus, UniProt Q690N0); experiment: DRUGMATRIX: Progesterone radioligand binding (ligand: [3H] R-5020); type: tissue-based, Uterus; conditions: Not Active = under 50% inhibition at 10 µM
T2 sequence (Q690N0 whole entry): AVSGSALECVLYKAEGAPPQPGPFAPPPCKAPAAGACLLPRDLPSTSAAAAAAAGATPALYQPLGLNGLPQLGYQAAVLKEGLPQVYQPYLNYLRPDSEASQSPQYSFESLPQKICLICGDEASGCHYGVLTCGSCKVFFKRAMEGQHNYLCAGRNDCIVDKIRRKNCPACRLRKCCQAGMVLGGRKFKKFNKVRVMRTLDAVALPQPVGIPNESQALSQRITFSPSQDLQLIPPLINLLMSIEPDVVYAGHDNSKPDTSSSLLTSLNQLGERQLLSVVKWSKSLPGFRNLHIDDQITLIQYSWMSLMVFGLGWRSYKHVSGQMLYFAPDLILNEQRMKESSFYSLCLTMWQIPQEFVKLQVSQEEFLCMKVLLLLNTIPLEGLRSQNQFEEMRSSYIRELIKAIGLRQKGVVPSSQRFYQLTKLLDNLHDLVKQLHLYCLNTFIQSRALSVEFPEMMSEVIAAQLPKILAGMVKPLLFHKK

[6] = biological target: T3, Alpha-1A adrenergic receptor (Rattus norvegicus, UniProt P43140); experiment: DRUGMATRIX: Alpha-1A adrenergic receptor radioligand binding (ligand: prazosin); type: cell membranes, Wistar, Submaxillary gland, Membrane; conditions: Not Active = under 50% inhibition at 10 µM
T3 sequence (P43140 whole entry): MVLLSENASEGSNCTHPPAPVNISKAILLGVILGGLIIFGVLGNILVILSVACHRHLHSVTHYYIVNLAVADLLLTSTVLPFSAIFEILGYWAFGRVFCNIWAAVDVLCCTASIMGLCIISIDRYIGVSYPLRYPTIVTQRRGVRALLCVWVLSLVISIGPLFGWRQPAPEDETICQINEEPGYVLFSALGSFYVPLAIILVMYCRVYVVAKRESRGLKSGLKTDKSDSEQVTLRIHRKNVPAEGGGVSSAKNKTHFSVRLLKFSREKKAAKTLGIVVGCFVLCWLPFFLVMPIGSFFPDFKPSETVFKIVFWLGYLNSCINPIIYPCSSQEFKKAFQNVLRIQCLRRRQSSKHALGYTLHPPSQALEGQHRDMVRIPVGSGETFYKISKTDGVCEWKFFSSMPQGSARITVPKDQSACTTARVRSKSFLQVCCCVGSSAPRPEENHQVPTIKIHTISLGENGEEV

[7] = biological target: Cytochrome P450 2C9 (Homo sapiens, UniProt P11712); conditions: bti-tn-5b1-4; also: in other assays of this panel Not Active means under 50% inhibition at 10 µM
[8] = DRUGMATRIX: Potassium Channel [KATP] radioligand binding (ligand: [3H] Glyburide); type: cell membranes, Membrane; conditions: hit-t15; Not Active = under 50% inhibition at 10 µM

Cytochrome P450 2C9, sequence (P11712 whole entry): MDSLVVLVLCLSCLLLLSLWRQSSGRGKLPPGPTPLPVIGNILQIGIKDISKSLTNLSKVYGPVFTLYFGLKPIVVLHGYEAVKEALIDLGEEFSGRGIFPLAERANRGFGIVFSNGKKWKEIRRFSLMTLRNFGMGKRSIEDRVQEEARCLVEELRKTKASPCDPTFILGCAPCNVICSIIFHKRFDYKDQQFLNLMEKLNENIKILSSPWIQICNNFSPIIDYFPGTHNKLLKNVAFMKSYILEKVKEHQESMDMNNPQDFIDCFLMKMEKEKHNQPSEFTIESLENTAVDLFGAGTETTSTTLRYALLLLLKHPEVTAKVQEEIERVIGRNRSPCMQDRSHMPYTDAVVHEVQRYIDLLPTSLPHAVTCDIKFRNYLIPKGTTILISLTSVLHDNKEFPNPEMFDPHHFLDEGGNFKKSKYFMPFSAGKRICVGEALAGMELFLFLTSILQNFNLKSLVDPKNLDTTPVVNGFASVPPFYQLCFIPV
Cytochrome P450 2C19, sequence (P33261 whole entry): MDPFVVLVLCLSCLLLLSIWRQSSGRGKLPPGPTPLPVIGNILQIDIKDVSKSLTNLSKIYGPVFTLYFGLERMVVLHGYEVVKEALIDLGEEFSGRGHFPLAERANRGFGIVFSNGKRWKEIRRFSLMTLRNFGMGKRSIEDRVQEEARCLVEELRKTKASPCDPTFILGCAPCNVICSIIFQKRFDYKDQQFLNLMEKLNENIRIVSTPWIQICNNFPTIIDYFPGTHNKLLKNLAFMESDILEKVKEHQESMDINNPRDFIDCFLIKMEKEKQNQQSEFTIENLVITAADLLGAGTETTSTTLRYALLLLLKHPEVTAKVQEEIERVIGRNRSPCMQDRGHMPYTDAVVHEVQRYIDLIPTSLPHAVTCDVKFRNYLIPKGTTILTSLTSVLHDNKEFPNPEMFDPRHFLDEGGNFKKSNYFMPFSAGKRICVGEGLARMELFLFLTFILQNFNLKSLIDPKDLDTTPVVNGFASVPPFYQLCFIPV

NCC(CC(=O)O)c1ccc(Cl)cc1 (stereo unspecified) [BACLOFEN]
Not Active: IC50 [1] | Ki [1] | IC50 [2] | IC50 [3] | Ki [3] | IC50 [4] | Ki [4] | IC50 [5] | IC50 [6] | IC50 [7] | Ki [7] | IC50 [8] | Ki [8]

OC[C@H]1O[C@@H]2O[C@H]3[C@H](O)[C@@H](O)[C@@H](O[C@H]4[C@H](O)[C@@H](O)[C@@H](O[C@H]5[C@H](O)[C@@H](O)[C@@H](O[C@H]6[C@H](O)[C@@H](O)[C@@H](O[C@H]7[C@H](O)[C@@H](O)[C@@H](O[C@H]8[C@H](O)[C@@H](O)[C@@H](O[C@H]1[C@H](O)[C@H]2O)O[C@@H]8CO)O[C@@H]7CO)O[C@@H]6CO)O[C@@H]5CO)O[C@@H]4CO)O[C@@H]3CO [BETADEX]
Not Active: IC50 [1] | Ki [1] | IC50 [2] | IC50 [3] | Ki [3] | IC50 [4] | Ki [4] | IC50 [5] | IC50 [6] | IC50 [7] | Ki [7] | IC50 [8] | Ki [8]

Cl.NC[C@H]1CC[C@H](C(=O)Oc2ccc(CCC(=O)O)cc2)CC1 [CETRAXATE HYDROCHLORIDE]
Not Active: IC50 [1] | Ki [1] | IC50 [2] | IC50 [3] | Ki [3] | IC50 [4] | Ki [4] | IC50 [5] | IC50 [6] | IC50 [7] | Ki [7] | IC50 [8] | Ki [8]

O=C(NCCN1CCOCC1)c1ccc(Cl)cc1 [MOCLOBEMIDE]
Not Active: IC50 [1] | Ki [1] | IC50 [2] | IC50 [3] | Ki [3] | IC50 [4] | Ki [4] | IC50 [5] | IC50 [6] | IC50 [7] | Ki [7] | IC50 [8] | Ki [8]

CARBOXYMETHYLCELLULOSE
Not Active: IC50 [1] | Ki [1] | IC50 [2] | Ki [2] | IC50 [3] | Ki [3] | IC50 [4] | Ki [4] | IC50 [5] | Ki [5] | IC50 [6] | Ki [6] | IC50 [7] | Ki [7] | IC50 [8] | Ki [8]

C[C@@H]1[C@H](O)[C@@H](C)/C=C/C=C/C=C/C=C/C=C/C=C/C=C/[C@H](O[C@@H]2O[C@H](C)[C@@H](O)[C@H](N)[C@@H]2O)C[C@@H]2O[C@](O)(C[C@@H](O)C[C@@H](O)[C@H](O)CC[C@@H](O)C[C@@H](O)CC(=O)O[C@H]1C)C[C@H](O)[C@H]2C(=O)O [AMPHOTERICIN B]
Not Active: IC50 [1] | Ki [1] | IC50 [2] | IC50 [3] | Ki [3] | IC50 [4] | Ki [4] | IC50 [5] | IC50 [6] | IC50 [7] | Ki [7] | IC50 [8] | Ki [8]

CCC1(c2ccccc2)C(=O)NC(=O)NC1=O [PHENOBARBITAL]
Not Active: IC50 [1] | Ki [1] | IC50 [2] | IC50 [3] | Ki [3] | IC50 [4] | Ki [4] | IC50 [5] | IC50 [6] | IC50 [7] | Ki [7] | IC50 [8] | Ki [8]

C=CCN1CC[C@]23c4c5ccc(O)c4O[C@H]2/C(=N/N=C2\CC[C@@]4(O)[C@H]6Cc7ccc(O)c8c7[C@@]4(CCN6CC=C)[C@H]2O8)CC[C@@]3(O)[C@H]1C5 [NALOXONAZINE]
Not Active: IC50 [1] | Ki [1] | IC50 [2] | IC50 [3] | Ki [3] | IC50 [4] | Ki [4] | IC50 [5] | IC50 [6] | IC50 [7] | Ki [7] | IC50 [8] | Ki [8]

CC(C)(C#N)c1cc(Cn2cncn2)cc(C(C)(C)C#N)c1 [ANASTROZOLE]
Not Active: IC50 [1] | Ki [1] | IC50 [2] | IC50 [3] | Ki [3] | IC50 [4] | Ki [4] | IC50 [5] | IC50 [6] | IC50 [7] | Ki [7] | IC50 [8] | Ki [8]

OC[C@H]1O[C@@H]2O[C@H]3[C@H](O)[C@@H](O)[C@@H](O[C@H]4[C@H](O)[C@@H](O)[C@@H](O[C@H]5[C@H](O)[C@@H](O)[C@@H](O[C@H]6[C@H](O)[C@@H](O)[C@@H](O[C@H]7[C@H](O)[C@@H](O)[C@@H](O[C@H]1[C@H](O)[C@H]2O)O[C@@H]7CO)O[C@@H]6CO)O[C@@H]5CO)O[C@@H]4CO)O[C@@H]3CO [ALFADEX]
Not Active: IC50 [1] | Ki [1] | IC50 [2] | IC50 [3] | Ki [3] | IC50 [4] | Ki [4] | IC50 [5] | IC50 [6] | IC50 [7] | Ki [7] | IC50 [8] | Ki [8]

POVIDONE
Not Active: IC50 [1] | Ki [1] | IC50 [2] | Ki [2] | IC50 [3] | Ki [3] | IC50 [4] | Ki [4] | IC50 [5] | Ki [5] | IC50 [6] | Ki [6] | IC50 [7] | Ki [7] | IC50 [8] | Ki [8]

c1ccc2c(c1)Nc1ccccc1S2 [PHENOTHIAZINE]
Not Active: IC50 [1] | Ki [1] | IC50 [2] | IC50 [3] | Ki [3] | IC50 [4] | Ki [4] | IC50 [5] | IC50 [6] | IC50 [7] | Ki [7] | IC50 [8] | Ki [8]

CC(N)Cc1c[nH]c2ccc(OCc3cccs3)cc12 (stereo unspecified) [BW-723C86]
Not Active: IC50 [1] | Ki [1] | IC50 [2] | IC50 [3] | Ki [3] | IC50 [4] | Ki [4] | IC50 [5] | IC50 [6] | IC50 [7] | Ki [7] | IC50 [8] | Ki [8]

O=C(O)COC(=O)Cc1ccccc1Nc1c(Cl)cccc1Cl [ACECLOFENAC]
Not Active: IC50 [1] | Ki [1] | IC50 [2] | IC50 [3] | Ki [3] | IC50 [4] | Ki [4] | IC50 [5] | IC50 [6] | IC50 [7] | Ki [7] | IC50 [8] | Ki [8]

COC(=O)Nc1nc2ccc(Sc3ccccc3)cc2[nH]1 [FENBENDAZOLE]
Not Active: IC50 [1] | Ki [1] | IC50 [2] | IC50 [3] | Ki [3] | IC50 [4] | Ki [4] | IC50 [5] | IC50 [6] | IC50 [7] | Ki [7] | IC50 [8] | Ki [8]
